Assay results: patent US11272709B2, “Amidine substituted benzoyl derivatives useful as herbicides” (Syngenta Participations AG, priority 2018, dated 2022)

How the values were obtained:
Assay type in all cases: in vivo
[1] = Comparative experiment, compound 1.049 versus Compound C1, (%) phytotoxicity observed (Table B2); conditions: rate 31 g/ha; for (%) phytotoxicity observed, POST Application ECHCG / (%) phytotoxicity observed, PRE Application ECHCG: Echinochloa crus-galli (ECHCG); for (%) phytotoxicity observed, POST Application SETFA / (%) phytotoxicity observed, PRE Application SETFA: Setaria faberi (SETFA)
Procedure: Seeds of a variety of test species are sown in standard soil in pots (Lolium perenne (LOLPE), Amaranthus retoflexus (AMARE), Abutilon theophrasti (ABUTH), Setaria faberi (SETFA), Echinochloa crus-galli (ECHCG), Ipomoea hederacea (IPOHE)). After cultivation for one day (pre-emergence) or after 8 days cultivation (post-emergence) under controlled conditions in a glasshouse (at 24/16° C., day/night; 14 hours light; 65% humidity), the plants are sprayed with an aqueous spray solution derived from the formulation of the technical active ingredient in acetone/water (50:50) solution containing 0.5% Tween 20 (polyoxyethelyene sorbitan monolaurate, CAS RN 9005-64-5). Compounds are applied at […] unless otherwise indicated. The test plants are then grown in a glasshouse under controlled conditions in a glasshouse (at 24/16° C., day/night; 14 hours light; 65% humidity) and watered twice daily. After 13 days for pre and post-emergence, the test is evaluated for the percentage damage caused to the plant. The biological activities are shown in the following table on a five point scale (5=80-100%; 4=60-79%; 3=40-59%; 2=20-39%; 1=0-19%). [table]

Setaria faberi (SETFA) [2] = experiment: Pre-emergence herbicidal glasshouse test, Setaria faberi (SETFA); conditions: 500 g/h, evaluated after 13 days
Outline: (§1)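 Pot-grown plants in standard soil were sprayed one day after sowing (pre-emergence) or after 8 days' cultivation (post-emergence) at 500 g/h unless otherwise indicated, in acetone/water (50:50) with 0.5% Tween 20. Glasshouse at 24/16 °C day/night, 14 h light, 65% humidity; percent damage was scored after 13 days on a 1–5 scale (5=80-100%, 1=0-19%).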

[3] = system: Ipomoea hederacea (IPOHE); experiment: Post-emergence herbicidal glasshouse test, Ipomoea hederacea (IPOHE); conditions: 500 g/h, evaluated after 13 days
Outline: as §1

[4] = system: Echinochloa crus-galli (ECHCG); experiment: Pre-emergence herbicidal glasshouse test, Echinochloa crus-galli (ECHCG); conditions: 500 g/h, evaluated after 13 days
Outline: as §1

[5] = system: Echinochloa crus-galli (ECHCG); experiment: Post-emergence herbicidal glasshouse test, Echinochloa crus-galli (ECHCG); conditions: 500 g/h, evaluated after 13 days
Outline: as §1

[6] = system: Amaranthus retoflexus (AMARE); experiment: Post-emergence herbicidal glasshouse test, Amaranthus retoflexus (AMARE); conditions: 500 g/h, evaluated after 13 days
Outline: as §1

[7] = system: Abutilon theophrasti (ABUTH); experiment: Pre-emergence herbicidal glasshouse test, Abutilon theophrasti (ABUTH); conditions: 500 g/h, evaluated after 13 days
Outline: as §1

[8] = system: Amaranthus retoflexus (AMARE); experiment: Pre-emergence herbicidal glasshouse test, Amaranthus retoflexus (AMARE); conditions: 500 g/h, evaluated after 13 days
Outline: as §1

Setaria faberi (SETFA) [9] = experiment: Post-emergence herbicidal glasshouse test, Setaria faberi (SETFA); conditions: 500 g/h, evaluated after 13 days
Outline: as §1

[10] = system: Abutilon theophrasti (ABUTH); experiment: Post-emergence herbicidal glasshouse test, Abutilon theophrasti (ABUTH); conditions: 500 g/h, evaluated after 13 days
Outline: as §1

[11] = system: Ipomoea hederacea (IPOHE); experiment: Pre-emergence herbicidal glasshouse test, Ipomoea hederacea (IPOHE); conditions: 500 g/h, evaluated after 13 days
Outline: as §1

## Cn1nnnc1NC(=O)c1ccc(C(F)(F)F)c(N)c1Cl [Cl]
[1]
  (%) phytotoxicity observed, POST Application ECHCG: 0%
  (%) phytotoxicity observed, PRE Application ECHCG: 0%
  (%) phytotoxicity observed, POST Application SETFA: 20%
  (%) phytotoxicity observed, PRE Application SETFA: 0%

## CN(C)C=Nc1c(C(F)(F)F)ccc(C(=O)Nc2nnnn2C)c1Cl [Compound 1.049]
Setaria faberi (SETFA) [2]
  PRE Application SETFA, percentage damage (five point scale): 5 (5=80-100%)
[3]
  POST Application IPOHE, percentage damage (five point scale): 5 (5=80-100%)
[4]
  PRE Application ECHCG, percentage damage (five point scale): 5 (5=80-100%)
[1]
  (%) phytotoxicity observed, POST Application ECHCG: 90%
  (%) phytotoxicity observed, PRE Application ECHCG: 90%
  (%) phytotoxicity observed, POST Application SETFA: 90%
  (%) phytotoxicity observed, PRE Application SETFA: 90%
[5]
  POST Application ECHCG, percentage damage (five point scale): 5 (5=80-100%)
[6]
  POST Application AMARE, percentage damage (five point scale): 5 (5=80-100%)
[7]
  PRE Application ABUTH, percentage damage (five point scale): 5 (5=80-100%)
[8]
  PRE Application AMARE, percentage damage (five point scale): 5 (5=80-100%)
Setaria faberi (SETFA) [9]
  POST Application SETFA, percentage damage (five point scale): 5 (5=80-100%)
[10]
  POST Application ABUTH, percentage damage (five point scale): 5 (5=80-100%)
[11]
  PRE Application IPOHE, percentage damage (five point scale): 5 (5=80-100%)

## CN(C)C=Nc1c(C(F)(F)F)ccc(C(=O)C2=C(O)CCCC2=O)c1Cl [Compound 3.049]
Setaria faberi (SETFA) [2]
  PRE Application SETFA, percentage damage (five point scale): 5 (5=80-100%)
[3]
  POST Application IPOHE, percentage damage (five point scale): 5 (5=80-100%)
[4]
  PRE Application ECHCG, percentage damage (five point scale): 5 (5=80-100%)
[5]
  POST Application ECHCG, percentage damage (five point scale): 5 (5=80-100%)
[6]
  POST Application AMARE, percentage damage (five point scale): 5 (5=80-100%)
[7]
  PRE Application ABUTH, percentage damage (five point scale): 5 (5=80-100%)
[8]
  PRE Application AMARE, percentage damage (five point scale): 5 (5=80-100%)
Setaria faberi (SETFA) [9]
  POST Application SETFA, percentage damage (five point scale): 5 (5=80-100%)
[10]
  POST Application ABUTH, percentage damage (five point scale): 5 (5=80-100%)
[11]
  PRE Application IPOHE, percentage damage (five point scale): 5 (5=80-100%)

## CN(C)C=Nc1c(S(C)(=O)=O)ccc(C(=O)C2=C(O)CCCC2=O)c1Cl [Compound 3.057]
Setaria faberi (SETFA) [2]
  PRE Application SETFA, percentage damage (five point scale): 5 (5=80-100%)
[3]
  POST Application IPOHE, percentage damage (five point scale): 5 (5=80-100%)
[4]
  PRE Application ECHCG, percentage damage (five point scale): 5 (5=80-100%)
[5]
  POST Application ECHCG, percentage damage (five point scale): 5 (5=80-100%)
[6]
  POST Application AMARE, percentage damage (five point scale): 5 (5=80-100%)
[7]
  PRE Application ABUTH, percentage damage (five point scale): 5 (5=80-100%)
[8]
  PRE Application AMARE, percentage damage (five point scale): 5 (5=80-100%)
Setaria faberi (SETFA) [9]
  POST Application SETFA, percentage damage (five point scale): 5 (5=80-100%)
[10]
  POST Application ABUTH, percentage damage (five point scale): 5 (5=80-100%)
[11]
  PRE Application IPOHE, percentage damage (five point scale): 5 (5=80-100%)

## CN(C=Nc1c(C(F)(F)F)ccc(C(=O)C2=C(O)CCCC2=O)c1Cl)CC(F)(F)F [Compound 3.130]
Setaria faberi (SETFA) [2]
  PRE Application SETFA, percentage damage (five point scale): 5 (5=80-100%)
[3]
  POST Application IPOHE, percentage damage (five point scale): 4 (4=60-79%)
[4]
  PRE Application ECHCG, percentage damage (five point scale): 5 (5=80-100%)
[5]
  POST Application ECHCG, percentage damage (five point scale): 5 (5=80-100%)
[6]
  POST Application AMARE, percentage damage (five point scale): 5 (5=80-100%)
[7]
  PRE Application ABUTH, percentage damage (five point scale): 5 (5=80-100%)
[8]
  PRE Application AMARE, percentage damage (five point scale): 5 (5=80-100%)
Setaria faberi (SETFA) [9]
  POST Application SETFA, percentage damage (five point scale): 5 (5=80-100%)
[10]
  POST Application ABUTH, percentage damage (five point scale): 5 (5=80-100%)
[11]
  PRE Application IPOHE, percentage damage (five point scale): 5 (5=80-100%)

## CON=C(C)N(C)Cc1c(C(F)(F)F)ccc(C(=O)Nc2nnnn2C)c1Cl [Compound 4.014]
Setaria faberi (SETFA) [2]
  PRE Application SETFA, percentage damage (five point scale): 5 (5=80-100%)
[3]
  POST Application IPOHE, percentage damage (five point scale): 5 (5=80-100%)
[4]
  PRE Application ECHCG, percentage damage (five point scale): 5 (5=80-100%)
[5]
  POST Application ECHCG, percentage damage (five point scale): 5 (5=80-100%)
[6]
  POST Application AMARE, percentage damage (five point scale): 5 (5=80-100%)
[7]
  PRE Application ABUTH, percentage damage (five point scale): 5 (5=80-100%)
[8]
  PRE Application AMARE, percentage damage (five point scale): 5 (5=80-100%)
Setaria faberi (SETFA) [9]
  POST Application SETFA, percentage damage (five point scale): 5 (5=80-100%)
[10]
  POST Application ABUTH, percentage damage (five point scale): 5 (5=80-100%)
[11]
  PRE Application IPOHE, percentage damage (five point scale): 5 (5=80-100%)

## CON=C(C)N(C)Cc1c(S(C)(=O)=O)ccc(C(=O)Nc2nnnn2C)c1Cl [Compound 4.016, 2-chloro-3-[[[N-methoxy-C-methyl-carbonimidoyl]-methyl-amino]methyl]-4-methylsulfonyl-N-(1-methyltetrazol-5-yl)benzamide]
Setaria faberi (SETFA) [2]
  PRE Application SETFA, percentage damage (five point scale): 5 (5=80-100%)
[3]
  POST Application IPOHE, percentage damage (five point scale): 4 (4=60-79%)
[4]
  PRE Application ECHCG, percentage damage (five point scale): 5 (5=80-100%)
[5]
  POST Application ECHCG, percentage damage (five point scale): 5 (5=80-100%)
[6]
  POST Application AMARE, percentage damage (five point scale): 4 (4=60-79%)
[7]
  PRE Application ABUTH, percentage damage (five point scale): 5 (5=80-100%)
[8]
  PRE Application AMARE, percentage damage (five point scale): 5 (5=80-100%)
Setaria faberi (SETFA) [9]
  POST Application SETFA, percentage damage (five point scale): 5 (5=80-100%)
[10]
  POST Application ABUTH, percentage damage (five point scale): 3 (3=40-59%)
[11]
  PRE Application IPOHE, percentage damage (five point scale): 5 (5=80-100%)

## CON=C(C)N(C)Cc1c(S(C)(=O)=O)ccc(C(=O)Nc2nnc(C)o2)c1Cl [Compound 5.016]
Setaria faberi (SETFA) [2]
  PRE Application SETFA, percentage damage (five point scale): 5 (5=80-100%)
[3]
  POST Application IPOHE, percentage damage (five point scale): 4 (4=60-79%)
[4]
  PRE Application ECHCG, percentage damage (five point scale): 5 (5=80-100%)
[5]
  POST Application ECHCG, percentage damage (five point scale): 5 (5=80-100%)
[6]
  POST Application AMARE, percentage damage (five point scale): 4 (4=60-79%)
[7]
  PRE Application ABUTH, percentage damage (five point scale): 5 (5=80-100%)
[8]
  PRE Application AMARE, percentage damage (five point scale): 5 (5=80-100%)
Setaria faberi (SETFA) [9]
  POST Application SETFA, percentage damage (five point scale): 5 (5=80-100%)
[10]
  POST Application ABUTH, percentage damage (five point scale): 3 (3=40-59%)
[11]
  PRE Application IPOHE, percentage damage (five point scale): 5 (5=80-100%)

## CCCn1nnnc1NC(=O)c1ccc(S(C)(=O)=O)c(N=CN(C)C)c1C [Compound 7.002]
Setaria faberi (SETFA) [2]
  PRE Application SETFA, percentage damage (five point scale): 5 (5=80-100%)
[3]
  POST Application IPOHE, percentage damage (five point scale): 4 (4=60-79%)
[4]
  PRE Application ECHCG, percentage damage (five point scale): 5 (5=80-100%)
[5]
  POST Application ECHCG, percentage damage (five point scale): 5 (5=80-100%)
[6]
  POST Application AMARE, percentage damage (five point scale): 5 (5=80-100%)
[7]
  PRE Application ABUTH, percentage damage (five point scale): 5 (5=80-100%)
[8]
  PRE Application AMARE, percentage damage (five point scale): 5 (5=80-100%)
Setaria faberi (SETFA) [9]
  POST Application SETFA, percentage damage (five point scale): 5 (5=80-100%)
[10]
  POST Application ABUTH, percentage damage (five point scale): 5 (5=80-100%)
[11]
  PRE Application IPOHE, percentage damage (five point scale): 5 (5=80-100%)

## COCCn1nnnc1NC(=O)c1ccc(S(C)(=O)=O)c(N=CN(C)C)c1C [Compound 7.003]
Setaria faberi (SETFA) [2]
  PRE Application SETFA, percentage damage (five point scale): 5 (5=80-100%)
[3]
  POST Application IPOHE, percentage damage (five point scale): 5 (5=80-100%)
[4]
  PRE Application ECHCG, percentage damage (five point scale): 5 (5=80-100%)
[5]
  POST Application ECHCG, percentage damage (five point scale): 5 (5=80-100%)
[6]
  POST Application AMARE, percentage damage (five point scale): 5 (5=80-100%)
[7]
  PRE Application ABUTH, percentage damage (five point scale): 5 (5=80-100%)
[8]
  PRE Application AMARE, percentage damage (five point scale): 5 (5=80-100%)
Setaria faberi (SETFA) [9]
  POST Application SETFA, percentage damage (five point scale): 5 (5=80-100%)
[10]
  POST Application ABUTH, percentage damage (five point scale): 5 (5=80-100%)
[11]
  PRE Application IPOHE, percentage damage (five point scale): 5 (5=80-100%)
